Tested on: patients with MUM
Experiment: Adverse events regardless of study drug relationship
Format: in vivo, human
Protocol: Routine safety assessments, including laboratory assessments, physical examinations, vital signs and electrocardiograms (ECGs), were conducted at regular intervals throughout the study and more frequently as needed following patient assessment by the treating physician. Adverse events (AEs) were assessed continuously according to the National Cancer Institute Common Terminology Criteria for Adverse Events (NCI-CTCAE) v4.03.

## CC1(N)CCN(c2cccnc2NC(=O)c2nc(-c3ncccc3C(F)(F)F)cnc2N)CC1 [LXS196]
500 mg QD
  ALT increased, all grades: 3 (27.3) n (%)
  ALT increased, grade ≥3: 1 (9.1) n (%)
  AST increased, all grades: 4 (36.4) n (%)
  AST increased, grade ≥3: 1 (9.1) n (%)
  Abdominal pain upper, all grades: 2 (18.2) n (%)
  Abdominal pain upper, grade ≥3: 0 n (%)
  Asthenia, all grades: 4 (36.4) n (%)
  Asthenia, grade ≥3: 0 n (%)
  Blood creatinine increased, all grades: 0 n (%)
  Blood creatinine increased, grade ≥3: 0 n (%)
  Constipation, all grades: 2 (18.2) n (%)
  Constipation, grade ≥3: 0 n (%)
  Decreased appetite, all grades: 4 (36.4) n (%)
  Decreased appetite, grade ≥3: 0 n (%)
  Dermatitis acneiform, all grades: 1 (9.1) n (%)
  Dermatitis acneiform, grade ≥3: 0 n (%)
  Diarrhoea, all grades: 5 (45.5) n (%)
  Diarrhoea, grade ≥3: 0 n (%)
  Dry skin, all grades: 1 (9.1) n (%)
  Dry skin, grade ≥3: 0 n (%)
  Fatigue, all grades: 1 (9.1) n (%)
  Fatigue, grade ≥3: 0 n (%)
  Hypotension, all grades: 4 (36.4) n (%)
  Hypotension, grade ≥3: 3 (27.3) n (%)
  Nasopharyngitis, all grades: 0 n (%)
  Nasopharyngitis, grade ≥3: 0 n (%)
  Nausea, all grades: 8 (72.7) n (%)
  Nausea, grade ≥3: 0 n (%)
  Neutropenia, all grades: 2 (18.2) n (%)
  Neutropenia, grade ≥3: 1 (9.1) n (%)
  Oedema peripheral, all grades: 1 (9.1) n (%)
  Oedema peripheral, grade ≥3: 0 n (%)
  Patients with ≥1 AE, all grades: 10 (90.9) n (%)
  Patients with ≥1 AE, grade ≥3: 4 (36.4) n (%)
  Rash, all grades: 0 n (%)
  Rash, grade ≥3: 0 n (%)
  Vomiting, all grades: 5 (45.5) n (%)
  Vomiting, grade ≥3: 0 n (%)
800 mg QD
  ALT increased, all grades: 0 n (%)
  ALT increased, grade ≥3: 0 n (%)
  AST increased, all grades: 0 n (%)
  AST increased, grade ≥3: 0 n (%)
  Abdominal pain upper, all grades: 0 n (%)
  Abdominal pain upper, grade ≥3: 0 n (%)
  Asthenia, all grades: 0 n (%)
  Asthenia, grade ≥3: 0 n (%)
  Blood creatinine increased, all grades: 0 n (%)
  Blood creatinine increased, grade ≥3: 0 n (%)
  Constipation, all grades: 0 n (%)
  Constipation, grade ≥3: 0 n (%)
  Decreased appetite, all grades: 0 n (%)
  Decreased appetite, grade ≥3: 0 n (%)
  Dermatitis acneiform, all grades: 0 n (%)
  Dermatitis acneiform, grade ≥3: 0 n (%)
  Diarrhoea, all grades: 1 (100) n (%)
  Diarrhoea, grade ≥3: 0 n (%)
  Dry skin, all grades: 0 n (%)
  Dry skin, grade ≥3: 0 n (%)
  Fatigue, all grades: 0 n (%)
  Fatigue, grade ≥3: 0 n (%)
  Hypotension, all grades: 1 (100) n (%)
  Hypotension, grade ≥3: 1 (100) n (%)
  Nasopharyngitis, all grades: 0 n (%)
  Nasopharyngitis, grade ≥3: 0 n (%)
  Nausea, all grades: 1 (100) n (%)
  Nausea, grade ≥3: 0 n (%)
  Neutropenia, all grades: 0 n (%)
  Neutropenia, grade ≥3: 0 n (%)
  Oedema peripheral, all grades: 0 n (%)
  Oedema peripheral, grade ≥3: 0 n (%)
  Patients with ≥1 AE, all grades: 1 (100) n (%)
  Patients with ≥1 AE, grade ≥3: 1 (100) n (%)
  Rash, all grades: 0 n (%)
  Rash, grade ≥3: 0 n (%)
  Vomiting, all grades: 0 n (%)
  Vomiting, grade ≥3: 0 n (%)
1000 mg QD
  ALT increased, all grades: 1 (25.0) n (%)
  ALT increased, grade ≥3: 0 n (%)
  AST increased, all grades: 0 n (%)
  AST increased, grade ≥3: 0 n (%)
  Abdominal pain upper, all grades: 0 n (%)
  Abdominal pain upper, grade ≥3: 0 n (%)
  Asthenia, all grades: 0 n (%)
  Asthenia, grade ≥3: 0 n (%)
  Blood creatinine increased, all grades: 0 n (%)
  Blood creatinine increased, grade ≥3: 0 n (%)
  Constipation, all grades: 0 n (%)
  Constipation, grade ≥3: 0 n (%)
  Decreased appetite, all grades: 0 n (%)
  Decreased appetite, grade ≥3: 0 n (%)
  Dermatitis acneiform, all grades: 0 n (%)
  Dermatitis acneiform, grade ≥3: 0 n (%)
  Diarrhoea, all grades: 4 (100) n (%)
  Diarrhoea, grade ≥3: 0 n (%)
  Dry skin, all grades: 1 (25.0) n (%)
  Dry skin, grade ≥3: 0 n (%)
  Fatigue, all grades: 3 (75.0) n (%)
  Fatigue, grade ≥3: 0 n (%)
  Hypotension, all grades: 2 (50.0) n (%)
  Hypotension, grade ≥3: 1 (25.0) n (%)
  Nasopharyngitis, all grades: 1 (25.0) n (%)
  Nasopharyngitis, grade ≥3: 0 n (%)
  Nausea, all grades: 4 (100) n (%)
  Nausea, grade ≥3: 0 n (%)
  Neutropenia, all grades: 0 n (%)
  Neutropenia, grade ≥3: 0 n (%)
  Oedema peripheral, all grades: 0 n (%)
  Oedema peripheral, grade ≥3: 0 n (%)
  Patients with ≥1 AE, all grades: 4 (100) n (%)
  Patients with ≥1 AE, grade ≥3: 2 (50.0) n (%)
  Rash, all grades: 0 n (%)
  Rash, grade ≥3: 0 n (%)
  Vomiting, all grades: 0 n (%)
  Vomiting, grade ≥3: 0 n (%)
